Values after ≈ are worked out from the molar mass of the structure shown. Active and inactive are the calls of the source. No cut-off for these calls is given here.
Tests used:
Klebsiella pneumoniae [1] = assay: Antibacterial activity against Klebsiella pneumoniae ATCC 700603 incubated for 18 hrs by broth microdilution method; assay type: functional
Escherichia coli [2] = assay: Antibacterial activity against Escherichia coli ATCC 25922 incubated for 18 hrs by broth microdilution method; assay type: functional
Staphylococcus aureus [3] = assay: Antibacterial activity against Staphylococcus aureus at 2 times MIC preincubated for 1 hr with chymotrypsin followed by enzyme inactivation and bacterial addition and measured after 18 hrs; assay type: functional; settings: time 19 hrs
[4] = system: Staphylococcus epidermidis; assay: Antibacterial activity against Staphylococcus epidermidis ATCC 12228 incubated for 18 hrs by broth microdilution method; assay type: functional
[5] = Self-assembly property of compound in PBS assessed as beta-sheet content; assay type: physicochemical; settings: buffer
Bacillus subtilis [6] = assay: Bactericidal activity against Bacillus subtilis ATCC 23857 incubated for 18 hrs by broth microdilution method; assay type: functional
Staphylococcus aureus [7] = assay: Antibacterial activity against Staphylococcus aureus at 2 times MIC preincubated for 1 hr with trypsin followed by enzyme inactivation and bacterial addition and measured after 18 hrs; assay type: functional; settings: time 19 hrs
Klebsiella pneumoniae [8] = assay: Bactericidal activity against Klebsiella pneumoniae ATCC 700603 incubated for 18 hrs by broth microdilution method; assay type: functional
Staphylococcus aureus [9] = assay: Bactericidal activity against Staphylococcus aureus ATCC 25923 incubated for 18 hrs by broth microdilution method; assay type: functional
Bacillus subtilis [10] = assay: Antibacterial activity against Bacillus subtilis ATCC 23857 incubated for 18 hrs by broth microdilution method; assay type: functional
[11] = Self-assembly property of compound in water assessed as beta-sheet content; assay type: physicochemical
Escherichia coli [12] = assay: Bactericidal activity against Escherichia coli ATCC 25922 incubated for 18 hrs by broth microdilution method; assay type: functional
[13] = Retention time of the compound; assay type: physicochemical
Staphylococcus aureus [14] = assay: Antibacterial activity against Staphylococcus aureus ATCC 25923 incubated for 18 hrs by broth microdilution method; assay type: functional
Erythrocyte = assay: Hemolytic activity in mouse erythrocytes assessed as concentration required to cause 10% hemolysis incubated for 1 hr; assay type: toxicity, cell-based
Pseudomonas aeruginosa [15] = assay: Bactericidal activity against Pseudomonas aeruginosa ATCC 27853 incubated for 18 hrs by broth microdilution method; assay type: functional
Pseudomonas aeruginosa [16] = assay: Antibacterial activity against Pseudomonas aeruginosa ATCC 27853 incubated for 18 hrs by broth microdilution method; assay type: functional
[17] = system: Staphylococcus epidermidis; assay: Bactericidal activity against Staphylococcus epidermidis ATCC 12228 incubated for 18 hrs by broth microdilution method; assay type: functional
[18] = Self-assembly property of compound in 50% TFE assessed as beta-sheet content; assay type: physicochemical
Staphylococcus aureus [19] = assay: Antibacterial activity against methicillin resistant Staphylococcus aureus incubated for 18 hrs by broth microdilution method; assay type: functional
Staphylococcus aureus [20] = assay: Antibacterial activity against kanamycin resistant Staphylococcus aureus incubated for 18 hrs by broth microdilution method; assay type: functional
Staphylococcus aureus [21] = assay: Antibacterial activity against Staphylococcus aureus S125 incubated for 18 hrs by broth microdilution method; assay type: functional
Cell membrane [22] = assay: Induction of cell membrane disruption in Staphylococcus aureus assessed as PI uptake at 4 times MIC incubated for 2 hrs by PI staining based flow cytometry analysis (reference value: 15.9%); assay type: cell membranes
Escherichia coli [23] = assay: Antibacterial activity against Escherichia coli incubated for 18 hrs by broth microdilution method; assay type: functional
Pseudomonas aeruginosa [24] = assay: Induction of morphological distortion in Pseudomonas aeruginosa assessed as bacterial collapse at 2 times MIC incubated for 30 mins by SEM analysis; assay type: functional, organism-based
Staphylococcus aureus [25] = assay: Antibacterial activity against methicillin resistant Staphylococcus aureus 113 incubated for 18 hrs by broth microdilution method; assay type: functional
Staphylococcus aureus [26] = assay: Induction of morphological distortion in Staphylococcus aureus assessed as bacterial collapse at 2 times MIC incubated for 30 mins by SEM analysis; assay type: functional, organism-based
Cell membrane [27] = assay: Induction of cell membrane disruption in Staphylococcus aureus assessed as PI uptake at 2 to 4 times MIC incubated for 2 hrs by PI staining based confocal laser scanning microscopy; assay type: cell membranes
Escherichia coli [28] = assay: Antibacterial activity against rifampicin resistant Escherichia coli incubated for 18 hrs by broth microdilution method; assay type: functional
Staphylococcus aureus [29] = assay: Induction of morphological change in Staphylococcus aureus assessed as bacterial collapse at 2 times MIC incubated for 30 mins by SEM analysis; assay type: functional, organism-based
Cell membrane [30] = assay: Induction of cell membrane disruption in Staphylococcus aureus assessed as PI uptake at 2 times MIC incubated for 2 hrs by PI staining based flow cytometry analysis (reference value: 15.9%); assay type: cell membranes
Cell membrane [31] = assay: Induction of cell membrane disruption in Escherichia coli assessed as PI uptake at 2 to 4 times MIC incubated for 2 hrs by PI staining based confocal laser scanning microscopy; assay type: cell membranes
Cell membrane [32] = assay: Induction of cell membrane disruption in Escherichia coli assessed as PI uptake at 4 times MIC incubated for 2 hrs by PI staining based flow cytometry analysis (reference value: 11.9%); assay type: cell membranes
Staphylococcus aureus [33] = assay: Antibacterial activity against rifampicin resistant Staphylococcus aureus incubated for 18 hrs by broth microdilution method; assay type: functional
Escherichia coli [34] = assay: Antibacterial activity against kanamycin resistant Escherichia coli incubated for 18 hrs by broth microdilution method; assay type: functional
Staphylococcus aureus [35] = assay: Induction of morphological change in Staphylococcus aureus assessed as bacterial lysis at 2 times MIC incubated for 30 mins by SEM analysis; assay type: functional, organism-based
Pseudomonas aeruginosa [36] = assay: Induction of morphological change in Pseudomonas aeruginosa assessed as bacterial collapse at 2 times MIC incubated for 30 mins by SEM analysis; assay type: functional, organism-based
Staphylococcus aureus [37] = assay: Antibacterial activity against Staphylococcus aureus S794 incubated for 18 hrs by broth microdilution method; assay type: functional
Escherichia coli [38] = assay: Antibacterial activity against Escherichia coli at 2 times MIC preincubated with 256 ug/ml LPS for 1 hr followed by bacterial addition and measured after 5 hrs; assay type: functional, organism-based; settings: time 6.0 hrs
Staphylococcus aureus [39] = assay: Antibacterial activity against methicillin resistant Staphylococcus aureus 75 incubated for 18 hrs by broth microdilution method; assay type: functional
Pseudomonas aeruginosa [40] = assay: Induction of morphological change in Pseudomonas aeruginosa assessed as bacterial lysis at 2 times MIC incubated for 30 mins by SEM analysis; assay type: functional, organism-based
Pseudomonas aeruginosa [41] = assay: Drug resistance against Pseudomonas aeruginosa assessed as fold increase in MIC after 40 consecutive days of passages by sequential passaging method; assay type: functional; settings: time 18.0 hrs
Staphylococcus aureus [42] = assay: Antibacterial activity against Staphylococcus aureus incubated for 18 hrs by broth microdilution method; assay type: functional
Cell membrane [43] = assay: Induction of cell membrane disruption in Escherichia coli assessed as PI uptake at 2 times MIC incubated for 2 hrs by PI staining based flow cytometry analysis (reference value: 11.9%); assay type: cell membranes

NCCCC[C@@H](N)C(=O)N[C@H](Cc1c[nH]c2ccccc12)C(=O)N[C@H](CCCCN)C(=O)N[C@H](Cc1c[nH]c2ccccc12)C(=O)N[C@H](CCCCN)C(=O)N1CCC[C@H]1C(=O)NCC(=O)N[C@H](CCCCN)C(=O)N[C@H](Cc1c[nH]c2ccccc12)C(=O)N[C@H](CCCCN)C(=O)N[C@H](Cc1c[nH]c2ccccc12)C(=O)N[C@H](CCCCN)C(N)=O
MIC (Klebsiella pneumoniae [1]): 32 µM (≈ 53.9 µg/mL)
MIC (Escherichia coli [2]): 8 µM (≈ 13.5 µg/mL)
Activity (Staphylococcus aureus [3]): 100%
MIC [4]: 4 µM (≈ 6.74 µg/mL)
Activity [5]: 80.2%
MBC (Bacillus subtilis [6]): 8 µM (≈ 13.5 µg/mL)
Activity (Staphylococcus aureus [7]): 100%
MBC (Klebsiella pneumoniae [8]): 64 µM (≈ 108 µg/mL)
MBC (Staphylococcus aureus [9]): 32 µM (≈ 53.9 µg/mL)
MIC (Bacillus subtilis [10]): 2 µM (≈ 3.37 µg/mL)
Activity [11]: 84.3%
MBC (Escherichia coli [12]): 16 µM (≈ 27 µg/mL)
Retention_time [13]: 11.212 min
MIC (Staphylococcus aureus [14]): 32 µM (≈ 53.9 µg/mL)
MHC (Erythrocyte): > 512 µM
MBC (Pseudomonas aeruginosa [15]): 128 µM (≈ 216 µg/mL)
MIC (Pseudomonas aeruginosa [16]): 64 µM (≈ 108 µg/mL)
MBC [17]: 8 µM (≈ 13.5 µg/mL)
Activity [18]: 39.2%

POLYMYXIN B
MIC (Staphylococcus aureus [19]): 16 µM
MIC (Staphylococcus aureus [20]): 8 µM
MIC (Staphylococcus aureus [21]): 8 µM
Activity (Cell membrane [22]): 38%
MIC (Klebsiella pneumoniae [1]): 2 µM
MIC (Escherichia coli [23]): 2 µM
MIC (Escherichia coli [2]): 2 µM
Activity (Pseudomonas aeruginosa [24]): Active
MIC [4]: 8 µM
MIC (Staphylococcus aureus [25]): 8 µM
MBC (Bacillus subtilis [6]): 8 µM
Activity (Staphylococcus aureus [26]): Active
Activity (Cell membrane [27]): inactive
MIC (Escherichia coli [28]): 2 µM
Activity (Staphylococcus aureus [29]): Active
MBC (Klebsiella pneumoniae [8]): 2 µM
Activity (Cell membrane [30]): 47.5%
MBC (Staphylococcus aureus [9]): 32 µM
Activity (Cell membrane [31]): inactive
Activity (Cell membrane [32]): 45.4%
MIC (Staphylococcus aureus [33]): 2 µM
MIC (Bacillus subtilis [10]): 4 µM
MIC (Escherichia coli [34]): 16 µM
MBC (Escherichia coli [12]): 2 µM
MIC (Staphylococcus aureus [14]): 8 µM
Activity (Staphylococcus aureus [35]): Active
MBC (Pseudomonas aeruginosa [15]): 1 µM
MIC (Pseudomonas aeruginosa [16]): 1 µM
Activity (Pseudomonas aeruginosa [36]): Active
MIC (Staphylococcus aureus [37]): 8 µM
Activity (Escherichia coli [38]): inactive
MIC (Staphylococcus aureus [39]): 16 µM
Activity (Pseudomonas aeruginosa [40]): Active
fold change (FC) (Pseudomonas aeruginosa [41]): 8
MIC (Staphylococcus aureus [42]): 8 µM
MBC [17]: 16 µM
Activity (Cell membrane [43]): 42.6%

NCCCC[C@@H](NC(=O)[C@H](N)Cc1c[nH]c2ccccc12)C(=O)N[C@H](Cc1c[nH]c2ccccc12)C(=O)N[C@H](CCCCN)C(=O)N[C@H](Cc1c[nH]c2ccccc12)C(=O)N1CCC[C@@H]1C(=O)NCC(=O)N[C@H](Cc1c[nH]c2ccccc12)C(=O)N[C@H](CCCCN)C(=O)N[C@H](Cc1c[nH]c2ccccc12)C(=O)N[C@H](CCCCN)C(=O)N[C@H](Cc1c[nH]c2ccccc12)C(N)=O
MIC (Klebsiella pneumoniae [1]): 8 µM (≈ 14.4 µg/mL)
MIC (Escherichia coli [2]): 4 µM (≈ 7.2 µg/mL)
Activity (Staphylococcus aureus [3]): 100%
MIC [4]: 4 µM (≈ 7.2 µg/mL)
Activity [5]: 44.2%
MBC (Bacillus subtilis [6]): 2 µM (≈ 3.6 µg/mL)
Activity (Staphylococcus aureus [7]): 100%
MBC (Klebsiella pneumoniae [8]): 8 µM (≈ 14.4 µg/mL)
MBC (Staphylococcus aureus [9]): 8 µM (≈ 14.4 µg/mL)
MIC (Bacillus subtilis [10]): 2 µM (≈ 3.6 µg/mL)
Activity [11]: 30.5%
MBC (Escherichia coli [12]): 4 µM (≈ 7.2 µg/mL)
Retention_time [13]: 14.321 min
MIC (Staphylococcus aureus [14]): 4 µM (≈ 7.2 µg/mL)
MHC (Erythrocyte): 147.6 µM
MBC (Pseudomonas aeruginosa [15]): 32 µM (≈ 57.6 µg/mL)
MIC (Pseudomonas aeruginosa [16]): 4 µM (≈ 7.2 µg/mL)
MBC [17]: 8 µM (≈ 14.4 µg/mL)
Activity [18]: 50%

— ChEMBL document CHEMBL5543109, “Novel β-Hairpin Antimicrobial Peptide Containing the β-Turn Sequence of -NG- and the Tryptophan Zippers Facilitate Self-Assembly into Nanofibers, Exhibiting Excellent Antimicrobial Performance” (J Med Chem, 2024)
